Assay results from patent US9546164B2 (GENENTECH, INC., priority 2013, dated 2017).
Structures can show the parent of a compound that is named as a salt. Where two headings read alike, the source gives them in different places.

Molecular target: hNav1.7 (Homo sapiens (Human), UniProt Q15858)
Assay: Tritiated sulfonamide competitive binding to membranes from cells expressing hNav1.7 and the β1 subunit;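 also: Filter-bound radioactivity counted by liquid scintillation, nonspecific binding defined with excess unlabelled ligand, IC50 fitted to percent inhibition of specific binding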
[1] = read-out: Ligand Binding Assay, 100 pM [3H]compound, membranes with hNav1.7 and β1 subunit, 18 h, room temperature

Chain of hNav1.7 (Q15858 other isoform, or with tags, fused parts or gaps): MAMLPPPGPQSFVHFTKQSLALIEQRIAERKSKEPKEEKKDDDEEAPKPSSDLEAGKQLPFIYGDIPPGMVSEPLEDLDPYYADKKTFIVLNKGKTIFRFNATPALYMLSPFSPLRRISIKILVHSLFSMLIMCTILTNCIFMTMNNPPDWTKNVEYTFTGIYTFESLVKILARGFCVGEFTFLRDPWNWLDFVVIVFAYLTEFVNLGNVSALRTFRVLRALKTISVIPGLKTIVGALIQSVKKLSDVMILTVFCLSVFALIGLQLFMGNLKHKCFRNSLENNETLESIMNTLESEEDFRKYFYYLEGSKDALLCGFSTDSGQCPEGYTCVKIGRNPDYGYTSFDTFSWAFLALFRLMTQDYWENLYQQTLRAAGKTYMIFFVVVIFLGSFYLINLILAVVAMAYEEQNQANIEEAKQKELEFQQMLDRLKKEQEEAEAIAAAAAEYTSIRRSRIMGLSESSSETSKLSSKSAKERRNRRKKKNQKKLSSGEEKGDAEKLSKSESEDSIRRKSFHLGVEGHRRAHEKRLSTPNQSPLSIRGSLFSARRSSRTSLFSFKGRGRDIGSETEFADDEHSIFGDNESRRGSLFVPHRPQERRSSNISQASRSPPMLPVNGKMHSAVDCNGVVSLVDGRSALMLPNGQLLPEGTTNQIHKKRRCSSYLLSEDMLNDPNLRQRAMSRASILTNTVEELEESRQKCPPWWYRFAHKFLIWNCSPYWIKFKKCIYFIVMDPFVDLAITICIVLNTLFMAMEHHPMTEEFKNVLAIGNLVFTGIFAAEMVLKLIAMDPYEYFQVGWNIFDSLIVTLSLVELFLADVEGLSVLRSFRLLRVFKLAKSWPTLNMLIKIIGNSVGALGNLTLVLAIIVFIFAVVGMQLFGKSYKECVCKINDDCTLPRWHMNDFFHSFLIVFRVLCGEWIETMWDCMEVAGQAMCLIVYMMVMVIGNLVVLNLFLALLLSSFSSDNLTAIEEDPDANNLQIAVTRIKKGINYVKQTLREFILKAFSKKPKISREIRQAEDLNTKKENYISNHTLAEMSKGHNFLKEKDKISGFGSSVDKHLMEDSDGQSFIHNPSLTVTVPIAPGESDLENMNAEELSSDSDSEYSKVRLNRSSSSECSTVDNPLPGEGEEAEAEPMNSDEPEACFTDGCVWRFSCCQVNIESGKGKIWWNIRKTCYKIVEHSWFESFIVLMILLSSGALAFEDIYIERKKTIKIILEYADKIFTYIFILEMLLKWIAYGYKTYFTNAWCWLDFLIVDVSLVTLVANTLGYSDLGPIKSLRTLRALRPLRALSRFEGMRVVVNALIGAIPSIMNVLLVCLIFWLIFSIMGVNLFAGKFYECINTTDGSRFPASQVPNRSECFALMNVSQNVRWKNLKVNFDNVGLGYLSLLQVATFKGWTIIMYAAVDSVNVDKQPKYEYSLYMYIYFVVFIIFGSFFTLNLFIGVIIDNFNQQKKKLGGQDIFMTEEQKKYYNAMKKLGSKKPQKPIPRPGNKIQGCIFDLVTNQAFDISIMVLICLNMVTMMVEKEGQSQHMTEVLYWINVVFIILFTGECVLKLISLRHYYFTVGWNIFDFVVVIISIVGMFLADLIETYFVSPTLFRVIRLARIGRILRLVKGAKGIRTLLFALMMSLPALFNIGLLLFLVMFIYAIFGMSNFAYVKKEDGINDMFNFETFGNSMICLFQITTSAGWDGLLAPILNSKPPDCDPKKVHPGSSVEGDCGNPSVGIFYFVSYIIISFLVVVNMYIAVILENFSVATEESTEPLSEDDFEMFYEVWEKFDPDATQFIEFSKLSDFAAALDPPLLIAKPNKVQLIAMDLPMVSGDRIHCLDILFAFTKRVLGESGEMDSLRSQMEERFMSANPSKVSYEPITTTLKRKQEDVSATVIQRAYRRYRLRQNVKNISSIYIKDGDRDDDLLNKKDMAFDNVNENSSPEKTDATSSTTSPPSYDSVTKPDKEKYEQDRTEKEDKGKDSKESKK
Chain of hNav1.7 (Q07699 19-218 partner): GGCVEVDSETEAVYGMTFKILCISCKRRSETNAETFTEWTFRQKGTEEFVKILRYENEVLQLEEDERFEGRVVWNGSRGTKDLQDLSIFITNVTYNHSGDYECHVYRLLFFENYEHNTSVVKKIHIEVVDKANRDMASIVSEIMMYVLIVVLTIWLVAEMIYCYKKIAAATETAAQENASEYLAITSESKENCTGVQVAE

| IC50 [1] [nM] | IC50 [nM] | SMILES |
| --- | --- | --- |
| 180 | – | O=C(NS(=O)(=O)N1CCC1)c1cc(C2CC2)c(OCC2CCN(CCC(F)(F)F)CC2)cc1F [Example 194, N-(azetidin-1-ylsulfonyl)-5-cyclopropyl-2-fluoro-4-((1-(3,3,3-trifluoropropyl)piperidin-4-yl)methoxy)benzamide] |
| 22 | – | O=C(NS(=O)(=O)N1CCC1)c1cc(C2CC2)c(CN2CCC[C@H](Oc3cc(Cl)cc(Cl)c3)C2)cc1F [Example 54, (S)—N-(azetidin-1-ylsulfonyl)-5-cyclopropyl-4-((3-(3,5-dichlorophenoxy)piperidin-1-yl)methyl)-2-fluorobenzamide, acetic acid salt] |
| 5.4 | – | Cc1ccc(CN2CCC[C@@H](Oc3cc(F)c(C(=O)NS(C)(=O)=O)cc3C3CC3)C2)cc1Cl [Example 435, (R)-4-((1-(3-Chloro-4-methylbenzyl)piperidin-3-yl)oxy)-5-cyclopropyl-2-fluoro-N-(methylsulfonyl)benzamide, trifluoroacetic acid salt] |
| 3 | – | CS(=O)(=O)NC(=O)c1cc(C2CC2)c(OCC2CCN(Cc3cc(Cl)cc(Cl)c3F)CC2)cc1F [Example 242, 5-Cyclopropyl-4-((1-(3,5-dichloro-2-fluorobenzyl)piperidin-4-yl)methoxy)-2-fluoro-N-(methylsulfonyl)benzamide] |
| 3.2 | – | Cc1cc(F)ccc1CN1CCC[C@@H](Oc2cc(F)c(C(=O)NS(C)(=O)=O)cc2C2CC2)C1 [Example 431, (R)-5-cyclopropyl-2-fluoro-4-((1-(4-fluoro-2-methylbenzyl)piperidin-3-yl)oxy)-N-(methylsulfonyl)benzamide, trifluoroacetic acid salt] |
| 16.3 | – | CS(=O)(=O)NC(=O)c1cc(C2CC2)c(OCC2CCN(S(=O)(=O)c3ccc4ccccc4c3)CC2)cc1F [Example 388, 5-cyclopropyl-2-fluoro-N-(methylsulfonyl)-4-((1-(naphthalen-2-ylsulfonyl)piperidin-4-yl)methoxy)benzamide] |
| 100 | – | COC[C@H](c1ccc(Cl)c(Cl)c1)N1CCC(COc2cc(F)c(C(=O)NS(C)(=O)=O)cc2C2CC2)CC1 (single isomer, unassigned) [Example 265] |
| 5 | – | CCS(=O)(=O)NC(=O)c1cc(C2CC2)c(OCC2CCN(Cc3cc(Cl)cc(C(F)(F)F)c3)CC2)cc1F [Example 216, 4-((1-(3-Chloro-5-(trifluoromethyl)benzyl)piperidin-4-yl)methoxy)-5-cyclopropyl-N-(ethylsulfonyl)-2-fluorobenzamide] |
| 6.9 | – | CCS(=O)(=O)NC(=O)c1cc(C2CC2)c(OC[C@@H]2CC[C@@H](C)N([C@@H](C)c3cc(Cl)cc(Cl)c3)C2)cc1F [Example 344, trifluoroacetic acid salt] |
| 250 | – | COC[C@H](c1ccccc1)N1CCC(COc2cc(F)c(C(=O)NS(C)(=O)=O)cc2C2CC2)CC1 [Example 223, (S)-5-cyclopropyl-2-fluoro-4-((1-(2-methoxy-1-phenylethyl)piperidin-4-yl)methoxy)-N-(methylsulfonyl)benzamide] |
| 92.8 | – | CS(=O)(=O)NC(=O)c1cc(C2CC2)c(OCC2CCN(Cc3cccc(F)c3)CC2)cc1F [Example 88, 4-((1-(3-Fluorobenzyl)piperidin-4-yl)methoxy)-5-cyclopropyl-2-fluoro-N-(methylsulfonyl)benzamide] |
| 3.76 | – | CCS(=O)(=O)NC(=O)c1cc(C2CC2)c(OCC2CCN(C(C)c3cc(Cl)cc(Cl)c3)CC2)cc1F (stereo not drawn) [Example 101, 5-Cyclopropyl-4-((1-(1-(3,5-dichlorophenyl)ethyl)piperidin-4-yl)methoxy)-N-(ethylsulfonyl)-2-fluorobenzamide] |
| 1.7 | – | CCS(=O)(=O)NC(=O)c1cc(C2CC2)c(OCC2CCN([C@H](c3cc(Cl)cc(Cl)c3)C(C)(C)OC)CC2)cc1F (single isomer, unassigned) [Example 207] |
| 2.2 | – | C[C@@H](c1ccc(Cl)cc1Cl)N1CCC(COc2cc(F)c(C(=O)NS(C)(=O)=O)cc2C2CC2)CC1 [Example 238, (S)-5-cyclopropyl-4-((1-(1-(2,4-dichlorophenyl)ethyl)piperidin-4-yl)methoxy)-2-fluoro-N-(methylsulfonyl)benzamide] |
| – | 318 | CS(=O)(=O)NC(=O)c1cc(C2CC2)c(O[C@@H]2CCCN(Cc3cccc4c3CNC4)C2)cc1F [Example 14, (R)-5-cyclopropyl-2-fluoro-4-((1-(isoindolin-4-ylmethyl)piperidin-3-yl)oxy)-N-(methylsulfonyl)benzamide] |
| 15 | – | C[C@H](c1cc(Cl)cc(Cl)c1)N1CCC(COc2cc(F)c(C(=O)NS(=O)(=O)C3CC3)cc2Cl)CC1 [Example 405, (R)-5-chloro-N-(cyclopropylsulfonyl)-4-((1-(1-(3,5-dichlorophenyl)ethyl)piperidin-4-yl)methoxy)-2-fluorobenzamide, trifluoroacetic acid salt] |

| IC50 [1] [nM] | IC50 [nM] | SMILES |
| --- | --- | --- |
| – | 3.7 | CS(=O)(=O)NC(=O)c1cc(C2CC2)c(CN2CCC(Oc3cc(Cl)cc(OC(F)(F)F)c3)CC2)cc1F [Example 548, 4-((4-(3-chloro-5-(trifluoromethoxy)phenoxy)piperidin-1-yl)methyl)-5-cyclopropyl-2-fluoro-N-(methylsulfonyl)benzamide, trifluoroacetic acid salt] |
| 17 | – | CS(=O)(=O)NC(=O)c1cc(C2CC2)c(OCC2CCN(Cc3ccc(C(F)(F)F)c(Cl)c3)CC2)cc1F [Example 220, 4-((1-(3-Chloro-4-(trifluoromethyl)benzyl)piperidin-4-yl)methoxy)-5-cyclopropyl-2-fluoro-N-(methylsulfonyl)benzamide] |
| 11.4 | – | Cc1cc(C(=O)NS(=O)(=O)C2CC2)c(F)cc1OCC1CCN([C@@H](C)c2cc(Cl)cc(Cl)c2)CC1 [Example 359, (S)—N-(cyclopropylsulfonyl)-4-((1-(1-(3,5-dichlorophenyl)ethyl)piperidin-4-yl)methoxy)-2-fluoro-5-methylbenzamide trifluoroacetic acid salt] |
| 3.9 | – | COC[C@@H](c1cc(Cl)cc(Cl)c1)N1CCC(COc2cc(F)c(C(=O)NS(=O)(=O)N3CCC3)cc2C2CC2)CC1 (single isomer, unassigned) [Example 166] |
| 533 | – | COc1ccc(CN2CCC[C@@H](Oc3cc(F)c(C(=O)NS(C)(=O)=O)cc3C3CC3)C2)cc1OC [Example 430, (R)-5-cyclopropyl-4-((1-(3,4-dimethoxybenzyl)piperidin-3-yl)oxy)-2-fluoro-N-(methylsulfonyl)benzamide, trifluoroacetic acid salt] |
| 118 | – | CS(=O)(=O)NC(=O)c1cc(C2CC2)c(OCC2CN(Cc3ccc(Cl)c(F)c3)C2)cc1F [Example 133, 4-((1-(4-Chloro-3-fluorobenzyl)azetidin-3-yl)methoxy)-5-cyclopropyl-2-fluoro-N-(methylsulfonyl)benzamide] |
| 173 | – | Cc1ccc(CN2CCC(COc3cc(F)c(C(=O)NS(C)(=O)=O)cc3C3CC3)CC2)cc1 [Example 93, 5-Cyclopropyl-2-fluoro-4-((1-(4-methylbenzyl)piperidin-4-yl)methoxy)-N-(methylsulfonyl)benzamide] |
| – | 7.1 | O=C(NS(=O)(=O)N1CCC1)c1cc(C2CC2)c(O[C@@H]2CCCN(Cc3cc(Cl)cc(Cl)c3)C2)cc1F [Example 5, (R)—N-(azetidin-1-ylsulfonyl)-5-cyclopropyl-4-((1-(3,5-dichlorobenzyl)piperidin-3-yl)oxy)-2-fluoroenzamide] |
| 2.99 | – | CS(=O)(=O)NC(=O)c1cc(C2CC2)c(OCC2CN(C(c3ccccc3)c3ccc(C(F)(F)F)cc3)C2)cc1F (stereo not drawn) [Example 131, 5-Cyclopropyl-2-fluoro-N-(methylsulfonyl)-4-((1-(phenyl(4-(trifluoromethyl)phenyl)methyl)-azetidin-3-yl)methoxy)benzamide] |
| 4 | – | C[C@@H](c1cc(Cl)cc(Cl)c1)N1CC(C)(COc2cc(F)c(C(=O)NS(C)(=O)=O)cc2C2CC2)C1 (single isomer, unassigned) [Example 186] |
| 191 | – | O=C(NS(=O)(=O)N1CC(F)C1)c1cc(C2CC2)c(OC2CC3(C2)CN(Cc2ccc(F)cc2Cl)C3)cc1F [Example 321, 4-((2-(2-chloro-4-fluorobenzyl)-2-azaspiro[3.3]heptan-6-yl)oxy)-5-cyclopropyl-2-fluoro-N-((3-fluoroazetidin-1-yl)sulfonyl)benzamide] |
| 43 | – | C[C@H](c1cccc(F)c1)N1CCC(C)(COc2cc(F)c(C(=O)NS(C)(=O)=O)cc2C2CC2)CC1 (single isomer, unassigned) [Example 250] |
| 3.9 | – | COC[C@H](c1cc(Cl)cc(Cl)c1)N1CCC(C)(COc2cc(F)c(C(=O)NS(C)(=O)=O)cc2C2CC2)CC1 (single isomer, unassigned) [Example 173] |
| 3.3 | – | CS(=O)(=O)NC(=O)c1cc(C2CC2)c(OCC2CCN(CC3(C(F)(F)F)CCCC3)CC2)cc1F [Example 329, 5-cyclopropyl-2-fluoro-N-(methylsulfonyl)-4-((1-((1-(trifluoromethyl)cyclopentyl)methyl)piperidin-4-yl)methoxy)benzamide trifluoroacetic acid salt] |
| 3.35 | – | CS(=O)(=O)NC(=O)c1cc(C2CC2)c(OCC2CN([C@@H](c3ccccc3)c3ccc(OC(F)(F)F)cc3)C2)cc1F [Example 112, (S)-5-Cyclopropyl-2-fluoro-N-(methylsulfonyl)-4-((1-(phenyl(4-(trifluoromethoxy)phenyl)methyl)azetidin-3-yl)methoxy)benzamide] |
| 1860 | – | C[C@H](c1ccccc1)N1CC(COc2cc(F)c(C(=O)NS(C)(=O)=O)cc2C2CC2)C1 [Example 85, (R)-5-Cyclopropyl-2-fluoro-N-(methylsulfonyl)-4-((1-(1-phenylethyl)azetidin-3-yl)methoxy)benzamide] |

| SMILES | IC50 [1] [nM] | IC50 [nM] |
| --- | --- | --- |
| O=C(NS(=O)(=O)C1CC1)c1cc(C2CC2)c(CN2[C@@H]3CC[C@H]2CC(Oc2cc(C(F)(F)F)cc(Cl)c2F)C3)cc1F (stereo partly drawn) [Example 470, 4-(((1R,3r,5S)-3-(3-chloro-2-fluoro-5-(trifluoromethyl)phenoxy)-8-azabicyclo[3.2.1]octan-8-yl)methyl)-5-cyclopropyl-N-(cyclopropylsulfonyl)-2-fluorobenzamide, trifluoroacetic acid salt] | 3.8 | – |
